Measured values: the NIST ThermoML archive (doi:10.1021/je900757k)

Assay: isobaric coefficient of expansion
Conditions: Liquid, DSC

c1ccccc1 [benzene]
isobaric coefficient of expansion
Conditions | 298.15 K | 308.15 K | 318.15 K | 328.15 K | 338.15 K | 348.15 K
5000 kPa | 0.0012 1/K | 0.00121 1/K | 0.00123 1/K | 0.00126 1/K | 0.00129 1/K | 0.00132 1/K
10000 kPa | 0.00116 1/K | 0.00118 1/K | 0.00119 1/K | 0.00121 1/K | 0.00123 1/K | 0.00125 1/K
15000 kPa | 0.00114 1/K | 0.00115 1/K | 0.00115 1/K | 0.00117 1/K | 0.00118 1/K | 0.0012 1/K
20000 kPa | 0.00111 1/K | 0.00112 1/K | 0.00113 1/K | 0.00113 1/K | 0.00114 1/K | 0.00115 1/K
25000 kPa | 0.00108 1/K | 0.00108 1/K | 0.00109 1/K | 0.0011 1/K | 0.0011 1/K | 0.00111 1/K
30000 kPa | 0.00105 1/K | 0.00106 1/K | 0.00106 1/K | 0.00106 1/K | 0.00107 1/K | 0.00108 1/K
35000 kPa | 0.00103 1/K | 0.00103 1/K | 0.00104 1/K | 0.00104 1/K | 0.00104 1/K | 0.00104 1/K
40000 kPa | 0.00101 1/K | 0.00101 1/K | 0.00101 1/K | 0.00101 1/K | 0.00101 1/K | 0.00102 1/K
45000 kPa | 0.000988 1/K | 0.00099 1/K | 0.000989 1/K | 0.000989 1/K | 0.000985 1/K | 0.000986 1/K
50000 kPa | 0.000971 1/K | 0.000972 1/K | 0.00097 1/K | 0.000966 1/K | 0.000966 1/K | 0.000963 1/K
55000 kPa | 0.000954 1/K | 0.000955 1/K | 0.000951 1/K | 0.000948 1/K | 0.000945 1/K | 0.000941 1/K
